Assay results taken from publication PMC10526447 (Biomolecules, 2023).
Read-outs that look alike come from different tables or passages of the source. Positions of bridges follow the written chain, without caps; N, C: chain ends. No end group written: not given here.

Experiments:
SARS-CoV PsV = settings: rhesus monkey, in vivo
live HCoV-229E = settings: 8 h
live HCoV-OC43 = settings: 8 h
[1] = in vivo; cited from earlier work
SARS-CoV-2 PsV = settings: 48 h
WIV1-CoV S protein = type: cell-based; settings: read-out: IC50 against Cell-Cell Fusion Mediated by S Proteins of CoVs
SARS-CoV-2 HR1P = SARS-CoV-2 HR1P (Severe acute respiratory syndrome coronavirus 2, UniProt P0DTC2); type: physicochemical; settings: pH 7.2
Pseudotyped WIV1-CoV = settings: 48 h
Pseudotyped HCoV-OC43 = settings: 48 h
Pseudotyped SARS-CoV-2 [2] = settings: 48 h
Pseudotyped HCoV-229E = settings: 48 h
HCoV-OC43 = type: in vivo, ICR mice (newborn)
SARS-CoV S protein = SARS-CoV S protein (Severe acute respiratory syndrome coronavirus, UniProt P59594); assay: cell-based
HCoV-NL63 S protein = HCoV-NL63 S protein (Human coronavirus NL63, UniProt Q6Q1S2); assay: cell-based
MERS-CoV S protein = MERS-CoV S protein (Middle East respiratory syndrome-related coronavirus, UniProt K9N5Q8); assay: cell-based
Pseudotyped SARS-CoV-2 [3] = settings: 48 h; remark: listed apart in the source
Pseudotyped MERS-CoV [4] = settings: 48 h
SARS-CoV-2 S protein [5] = target: T1, SARS-CoV-2 S protein (Severe acute respiratory syndrome coronavirus 2, UniProt P0DTC2); assay: cell-based; settings: IC50 against Cell-Cell Fusion Mediated by S Proteins of CoVs
HCoV-OC43 S protein = HCoV-OC43 S protein (Human coronavirus OC43, UniProt P36334); assay: cell-based
Pseudotyped MERS-CoV [6] = settings: 48 h; remark: listed apart in the source
Pseudotyped SARS-CoV [7] = settings: 48 h
Pseudotyped HCoV-NL63 [8] = settings: 48 h
Pseudotyped SARS-CoV [9] = settings: 48 h; remark: listed apart in the source
Pseudotyped HCoV-NL63 [10] = settings: 48 h; remark: listed apart in the source
HCoV-229E S protein = HCoV-229E S protein (Human coronavirus 229E, UniProt P15423); assay: cell-based
[11] = rhesus monkey, in vivo, iv, 10 mg/kg
in vivo = settings: rhesus monkey, iv, 10 mg/kg
proteinase K = proteinase K (Parengyodontium album, UniProt P06873)
[12] = mouse, in vivo, 50 mg/kg
[13] = tested on: Caco-2, Calu-3, RD and Huh-7 cells; settings: 24 h
in vitro = settings: human, Caco-2, Calu-3, RD and Huh-7 cells
[14] = tested on: pseudotyped SARS-CoV-2 VOCs; settings: 48 h
SARS-CoV-2 S protein [15] = target: T1, SARS-CoV-2 S protein; assay: cell-based
[16] = target: SARS-CoV-2 HR1 peptide (SARS-CoV-2)
[17] = target: human immunoglobulin G (IgG) (human); assay: BLI

Sequence of proteinase K (P06873 106-384): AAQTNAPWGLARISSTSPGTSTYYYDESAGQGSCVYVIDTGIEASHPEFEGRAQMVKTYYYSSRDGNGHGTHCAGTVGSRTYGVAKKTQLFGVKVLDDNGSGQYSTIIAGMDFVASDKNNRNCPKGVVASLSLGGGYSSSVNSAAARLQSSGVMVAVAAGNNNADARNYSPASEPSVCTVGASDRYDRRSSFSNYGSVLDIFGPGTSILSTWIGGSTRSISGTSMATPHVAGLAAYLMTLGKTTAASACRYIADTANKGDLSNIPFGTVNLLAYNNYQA

CC[C@H](C)[C@H](NC(=O)[C@H](C)NC(=O)[C@H](CCC(=O)O)NC(=O)[C@H](CCC(=O)O)NC(=O)[C@H](CC(C)C)NC(=O)[C@H](CCCCN)NC(=O)[C@H](CCCCN)NC(=O)[C@H](CCSC)NC(=O)[C@H](CCC(=O)O)NC(=O)[C@H](Cc1ccc(O)cc1)NC(=O)[C@H](CCC(=O)O)NC(=O)[C@H](CC(C)C)NC(=O)[C@H](CC(=O)O)NC(=O)[C@H](CC(C)C)NC(=O)[C@H](Cc1ccccc1)NC(=O)[C@@H](NC(=O)[C@@H](NC(=O)[C@H](CC(N)=O)NC(=O)[C@@H](NC(=O)[C@H](CCC(N)=O)NC(=O)[C@H](CC(=O)O)NC(=O)[C@H](CC(C)C)NC(=O)[C@@H](N)CO)[C@@H](C)CC)C(C)C)[C@@H](C)O)C(=O)N[C@@H](CCCCN)C(=O)N[C@@H](CCCCN)C(=O)N[C@@H](CC(C)C)C(=O)N[C@@H](CCC(=O)O)C(=O)N[C@@H](CCC(=O)O)C(=O)N[C@@H](CO)C(=O)N[C@@H](Cc1ccc(O)cc1)C(=O)N[C@H](C(=O)N[C@@H](CC(=O)O)C(=O)N[C@@H](CC(C)C)C(=O)N[C@@H](CCCCN)C(=O)N[C@@H](CCC(=O)O)C(=O)N[C@@H](CC(C)C)C(=O)O)[C@@H](C)CC [EK1]
ex vivo inhibition of SARS-CoV PsV by serum (fold of its IC50) (SARS-CoV PsV; iv, 10 mg/kg): below 450 fold | t1/2 (SARS-CoV PsV; iv, 10 mg/kg): 1.77 h | IC50 (live HCoV-229E): 7590 nM | IC50 (live HCoV-OC43): 764 nM | t1/2 (reported value) [1]: 1.8 h | IC50 (SARS-CoV-2 PsV): 791 nM | IC50 (WIV1-CoV S protein): 588 nM | Tm of complex with SARS-CoV-2 HR1P (SARS-CoV-2 HR1P): 51.05 °C | IC50 (Pseudotyped WIV1-CoV): 6980 nM | IC50 (Pseudotyped HCoV-OC43): 3610 nM | IC50 (Pseudotyped SARS-CoV-2 [2]): 253 nM | IC50 (Pseudotyped HCoV-229E): 3480 nM | protection (survival), prophylactic (HCoV-OC43; 3-day-old suckling mice, 10 mg/kg intranasal single dose 1 h before HCoV-OC43 (100 TCID50) challenge): 100% | viral loads in mouse brain, therapeutic group (HCoV-OC43; day 5 post challenge, 10 mg/kg intranasal 1 h after challenge, vs viral control): significantly different from those of viral control group | viral loads in mouse brain, prophylactic group (HCoV-OC43; day 5 post challenge, 10 mg/kg intranasal 1 h before challenge, relative RNA quantification vs viral control): very low

CC(C)C[C@@H]1NC(=O)[C@H](Cc2c[nH]cn2)NC(=O)[C@H](Cc2c[nH]c3ccccc23)NC(=O)[C@H](C)NC(=O)[C@@H](NC(=O)[C@@H](N)CC(=O)O)CSSC[C@@H](C(=O)N[C@H](C(=O)O)[C@@H](C)O)NC(=O)[C@H](Cc2c[nH]c3ccccc23)NC(=O)[C@H](C(C)C)NC(=O)[C@H](CC(C)C)NC(=O)[C@H](CCC(=O)O)NC(=O)CNC1=O [IBP]
IC50 (SARS-CoV S protein): > 50000 nM | IC50 (live HCoV-229E): > 50000 nM | IC50 (live HCoV-OC43): > 50000 nM | IC50 (HCoV-NL63 S protein): > 50000 nM | IC50 (MERS-CoV S protein): > 50000 nM | IC50 (Pseudotyped SARS-CoV-2 [3]): > 50000 nM | IC50 (Pseudotyped MERS-CoV [4]): > 50000 nM | IC50 (SARS-CoV-2 S protein [5]): > 100000 nM | IC50 (SARS-CoV-2 PsV): > 100000 nM | IC50 (HCoV-OC43 S protein): > 50000 nM | IC50 (Pseudotyped MERS-CoV [6]): > 50000 nM | IC50 (Pseudotyped SARS-CoV [7]): > 50000 nM | IC50 (Pseudotyped WIV1-CoV): > 50000 nM | IC50 (Pseudotyped HCoV-OC43): > 50000 nM | IC50 (Pseudotyped HCoV-NL63 [8]): > 50000 nM | IC50 (Pseudotyped SARS-CoV [9]): > 50000 nM | IC50 (Pseudotyped HCoV-NL63 [10]): > 50000 nM | IC50 (Pseudotyped SARS-CoV-2 [2]): > 50000 nM | IC50 (Pseudotyped HCoV-229E): > 50000 nM | IC50 (HCoV-229E S protein): > 50000 nM

DCAWHLGELVWCTGGSSLDQINVTFLDLEYEMKKLEEAIKKLEESYIDLKEL (disulfide 2-12) [IBP-L-EK1]
IC50 (SARS-CoV-2 PsV): 806 nM

DCAWHLGELVWCTSLDQINVTFLDLEYEMKKLEEAIKKLEESYIDLKEL (disulfide 2-12) [IBP-EK1]
half-life relative to that of EK1 (SARS-CoV PsV): about 21 fold | AUC (SARS-CoV PsV; iv, 10 mg/kg): 5228.98 µg·h/mL | Cmax (SARS-CoV PsV; iv, 10 mg/kg): 116.09 µg/mL | Tmax (SARS-CoV PsV; iv, 10 mg/kg): 2 h | t1/2 (SARS-CoV PsV; iv, 10 mg/kg): 39.72 h | IC50 (SARS-CoV S protein): 229 nM | IC50 (live HCoV-229E): 4140 nM | AUC [11]: 2207.03 µg·h/mL | IC50 (live HCoV-OC43): 744 nM | Cmax (in vivo): 51.7 µg/mL | Tmax (in vivo): 2 h | half-life (in vivo): 37.7 h | level at 24 h (in vivo): ~24 µg/mL | residual inhibitory activity against SARS-CoV-2 PsV after proteinase K treatment (proteinase K): significantly better inhibitory activities than those of EK1 | IC50 (HCoV-NL63 S protein): 212 nM | IC50 (MERS-CoV S protein): 376 nM | IC50 (SARS-CoV-2 S protein [5]): 512 nM | IC50 (SARS-CoV-2 PsV): 788 nM | IC50 (HCoV-OC43 S protein): 829 nM | ALT level in sera [12]: in the normal range | IBP-EK1-specific antibodies in sera (immunogenicity) [12]: no IBP-EK1-specific antibodies were detected | body weight changes [12]: weight changes similar to those of the PBS-treated group | creatinine level in sera [12]: in the normal range | histopathology of lungs, livers and kidneys (H&E) [12]: no pathological abnormalities in their organs | IC50 (Pseudotyped WIV1-CoV): 6050 nM | residual inhibitory activity against SARS-CoV-2 PsV after trypsin treatment (trypsin): significantly better inhibitory activities than those of EK1 | selectivity index (SI = CC50/IC50) [13]: more than 100 | IC50 (Pseudotyped HCoV-OC43): 3570 nM | IC50 (Pseudotyped SARS-CoV-2 [2]): 180 nM | CC50 at 48 h (in vitro): > 100000 nM | IC50 (Pseudotyped HCoV-229E): 3340 nM | IC50 [14]: 171 to 296 nM | IC50 (HCoV-229E S protein): 478 nM | IC50 (SARS-CoV-2 S protein [15]): 325 nM

EK1 (peptide)
IC50 against pseudotyped SARS-CoV-2 infection of Caco-2 cells [16]: 590 nM | IC50 against pseudotyped SARS-CoV-2 infection of Calu-3 cells [16]: 253 nM

IBP-EK1 (peptide)
Kd [17]: 217 nM | IC50 against pseudotyped SARS-CoV-2 infection of Caco-2 cells [16]: 512 nM | IC50 against pseudotyped SARS-CoV-2 infection of Calu-3 cells [16]: 180 nM

SLDQINVTFLDLEYEMKKLEEAIKKLEESYIDLKELDCAWHLGELVWCT (disulfide 38-48) [EK1-IBP]
IC50 (SARS-CoV-2 PsV): 1180 nM

SLDQINVTFLDLEYEMKKLEEAIKKLEESYIDLKELGGSDCAWHLGELVWCT (disulfide 41-51) [EK1-L-IBP]
IC50 (SARS-CoV-2 PsV): 1170 nM

human immunoglobulin G Fc-binding peptide (IBP)
Kd [17]: 1030 nM
